{"source": "patent US20170369677A1", "about": "“MATERIALS FREE OF ENDOCRINE DISRUPTIVE ACTIVITY” (CertiChem, Inc., priority 2006, published 2017)", "origin": "cited, not measured here", "key": {"ER": {"system": "ER", "conditions": "statement in words"}, "[1]": {"conditions": "statement in words"}, "[2]": {"conditions": "recommended daily dietary allowance for these antioxidants"}, "[3]": {"system": "snails, fish, frogs, and rodents"}, "[4]": {"conditions": "for Carcinogenic or Other Toxic Effects: common pigments used in plastic formulations, Table P-3"}}, "note": "Like-named read-outs stand apart in the source and are kept apart here.", "data": [{"compound": "CC(C)(C)c1cc(Cc2cc(C(C)(C)C)c(O)c(C(C)(C)C)c2)cc(C(C)(C)C)c1O", "note": "[4,4′-methylenebis (2,6-di-t-butylphenol)]", "values": [{"measurement": "ER binding activity observed", "setting": "ER", "result": "lack of binding activity"}]}, {"compound": "C[C@]12CC[C@@H]3c4ccc(O)cc4CC[C@H]3[C@@H]1CC[C@@H]2O", "note": "[17β-estradiol (E2), 17β-estradiol, reference compound]", "values": [{"measurement": "estrogenic or androgenic activity", "setting": "[1]", "result": "strong estrogen"}]}, {"compound": "COc1ccc(O)c(C(C)(C)C)c1", "note": "[BHA, Butylated hydroxyanisole]", "values": [{"measurement": "ADI", "setting": "[2]", "result": "0 to 0.5", "unit": "mg/kg"}]}, {"compound": "Cc1cc(C(C)(C)C)c(O)c(C(C)(C)C)c1", "note": "[BHT, Butylated hydroxytoulene]", "values": [{"measurement": "estrogenic or androgenic activity", "setting": "[1]", "result": "has estrogenic activity"}, {"measurement": "ADI", "setting": "[2]", "result": "0 to 0.125", "unit": "mg/kg"}]}, {"compound": "CC(C)(c1ccc(O)cc1)c1ccc(O)cc1", "note": "[Bisphenol A]", "values": [{"measurement": "levels in human umbilical cords", "result": "0.2 to 2", "unit": "µg/kg"}, {"measurement": "dose at which deleterious developmental changes have been reported", "setting": "[3]", "result": "0.5 to 2", "unit": "µg/kg/day"}, {"measurement": "dose at which deleterious developmental changes have been reported", "setting": "[3]; listed as bisphenol A", "result": "0.5 to 2", "unit": "µg/kg/day"}, {"measurement": "estrogenic or androgenic activity", "setting": "[1]", "result": "deleterious estrogenic activity"}]}, {"compound": "CC(C)CCC[C@@H](C)[C@H]1CC[C@H]2[C@@H]3CC=C4C[C@@H](O)CC[C@]4(C)[C@H]3CC[C@]12C", "note": "[Cholesterol]", "values": [{"measurement": "estrogenic or androgenic activity", "setting": "[1]", "result": "little or no known estrogenic or androgenic activity"}]}, {"compound": "C[C@]12CCC(=O)C[C@@H]1CC[C@@H]1[C@@H]2CC[C@]2(C)[C@@H](O)CC[C@@H]12", "note": "[DHT, 5a-dihydrotestosterone, reference compound]", "values": [{"measurement": "estrogenic or androgenic activity", "setting": "[1]", "result": "strong androgen"}]}, {"compound": "C=C", "note": "[Ethylene]", "values": [{"measurement": "estrogenic or androgenic activity", "setting": "[1]", "result": "no known estrogenic activity or other deleterious effects"}]}, {"compound": "[C-]#N.[C-]#N.[C-]#N.[C-]#N.[C-]#N.[C-]#N.[Fe+2].[Fe+3].[NH4+]", "note": "[Ferric amonimum, ferric amonimum ferrocyanide]", "values": [{"measurement": "Carcinogenic or Other Toxic Effects", "setting": "[4]", "result": "Yes"}]}, {"compound": "[O]=[Mo](=[O])([O-])[O-].[Pb+2]", "note": "[Lead molybdate]", "values": [{"measurement": "Carcinogenic or Other Toxic Effects", "setting": "[4]", "result": "Yes"}]}, {"compound": "CCCOC(=O)c1cc(O)c(O)c(O)c1", "note": "[Propyl gallate]", "values": [{"measurement": "ADI", "setting": "[2]", "result": "0 to 2.5", "unit": "mg/kg"}]}, {"compound": "CC(C)(C)c1cc(O)ccc1O", "note": "[TBHQ, Tert-Butylhydroquinone]", "values": [{"measurement": "ADI", "setting": "[2]", "result": "0 to 0.2", "unit": "mg/kg"}]}, {"compound": "O=C(O)c1ccc(C(=O)O)cc1", "note": "[Terephthalic, terephthalic acid]", "values": [{"measurement": "estrogenic or androgenic activity", "setting": "[1]", "result": "deleterious estrogenic activity"}]}, {"compound": "C=CCl", "note": "[Vinylchloride]", "values": [{"measurement": "toxic effects stated in text", "setting": "[4]; statement in words", "result": "other toxic effects"}]}, {"compound": "CC(=O)[C@H]1CC[C@H]2[C@@H]3CCC4=CC(=O)CC[C@]4(C)[C@H]3CC[C@]12C", "note": "[progesterone]", "values": [{"measurement": "estrogenic or androgenic activity", "setting": "[1]", "result": "androgenic, but no known estrogenic, activity"}]}, {"compound": "Tocopherols", "values": [{"measurement": "ADI", "setting": "[2]", "result": "0.15 to 2", "unit": "mg/kg"}]}]}
